Assay: xn = mol fraction of the nth substance listed

NCCCN + O
viscosity [mPa·s]
Settings | 303.15 K | 308.15 K | 313.15 K | 318.15 K | 323.15 K
101 kPa, x1 = 0.05 | 1.58 | 1.38 | 1.227 | 1.097 | –
101 kPa, x1 = 0.0966 | 2.754 | 2.355 | 2.03 | – | –
101 kPa, x1 = 0.1458 | 4.36 | 3.619 | 3.031 | – | –
101 kPa, x1 = 0.199 | 6.289 | 5.088 | 4.188 | – | –
101 kPa, x1 = 0.2473 | 7.568 | 6.055 | 4.93 | – | –
101 kPa, x1 = 0.2961 | 8.219 | 6.535 | 5.313 | – | –
101 kPa, x1 = 0.3465 | 7.991 | 6.401 | 5.22 | – | –
101 kPa, x1 = 0.3974 | 7.438 | 6.022 | 4.946 | – | –
101 kPa, x1 = 0.4955 | 5.878 | 4.832 | 4.038 | – | –
101 kPa, x1 = 0.5995 | 4.307 | 3.644 | 3.127 | – | –
101 kPa, x1 = 0.6969 | 3.224 | 2.779 | 2.419 | – | –
101 kPa, x1 = 0.8006 | 2.501 | 2.177 | 1.921 | – | –
101 kPa, x1 = 0.8936 | 1.997 | 1.762 | 1.573 | – | –
101.33 kPa, x1 = 0.0518 | 1.637 | 1.437 | 1.267 | 1.127 | 1.008
101.33 kPa, x1 = 0.1 | 2.991 | 2.534 | 2.174 | 1.887 | 1.65
101.33 kPa, x1 = 0.1498 | 4.882 | 4.012 | 3.345 | 2.827 | 2.417
101.33 kPa, x1 = 0.2004 | 6.762 | 5.446 | 4.467 | 3.714 | 3.132
101.33 kPa, x1 = 0.2498 | 7.872 | 6.309 | 5.128 | 4.236 | 3.548
101.33 kPa, x1 = 0.2734 | 8.088 | 6.473 | 5.268 | 4.351 | 3.646
101.33 kPa, x1 = 0.2984 | 8.108 | 6.502 | 5.297 | 4.379 | 3.662
101.33 kPa, x1 = 0.3248 | 7.918 | 6.364 | 5.199 | 4.307 | 3.619
101.33 kPa, x1 = 0.3502 | 7.614 | 6.155 | 5.027 | 4.189 | 3.518
101.33 kPa, x1 = 0.3766 | 7.121 | 5.774 | 4.754 | 3.972 | 3.354
101.33 kPa, x1 = 0.4041 | 6.681 | 5.464 | 4.509 | 3.787 | 3.211
101.33 kPa, x1 = 0.4467 | 5.911 | 4.871 | 4.068 | 3.445 | 2.935

COC(=O)OC + CO
Settings | viscosity [mPa·s]
293.15 K, 101 kPa, x1 = 0.0381 | 0.5792
293.15 K, 101 kPa, x1 = 0.0818 | 0.5612
293.15 K, 101 kPa, x1 = 0.1346 | 0.5507
293.15 K, 101 kPa, x1 = 0.1927 | 0.5478
293.15 K, 101 kPa, x1 = 0.2626 | 0.5418
293.15 K, 101 kPa, x1 = 0.348 | 0.536
293.15 K, 101 kPa, x1 = 0.4533 | 0.5379
293.15 K, 101 kPa, x1 = 0.5871 | 0.548
293.15 K, 101 kPa, x1 = 0.7618 | 0.564
293.15 K, 101.3 kPa, x1 = 0.0537 | 0.567
293.15 K, 101.3 kPa, x1 = 0.0996 | 0.551
293.15 K, 101.3 kPa, x1 = 0.2058 | 0.536
293.15 K, 101.3 kPa, x1 = 0.3135 | 0.533
293.15 K, 101.3 kPa, x1 = 0.41 | 0.535
293.15 K, 101.3 kPa, x1 = 0.5086 | 0.54
293.15 K, 101.3 kPa, x1 = 0.6104 | 0.545
293.15 K, 101.3 kPa, x1 = 0.7229 | 0.554
293.15 K, 101.3 kPa, x1 = 0.8338 | 0.57
293.15 K, 101.3 kPa, x1 = 0.9067 | 0.586
293.15 K, 101.3 kPa, x1 = 0.9509 | 0.6
298.15 K, 101 kPa, x1 = 0.0381 | 0.5373
298.15 K, 101 kPa, x1 = 0.0818 | 0.5292
298.15 K, 101 kPa, x1 = 0.1346 | 0.5164
298.15 K, 101 kPa, x1 = 0.1927 | 0.5119
298.15 K, 101 kPa, x1 = 0.2626 | 0.5061
298.15 K, 101 kPa, x1 = 0.348 | 0.503
298.15 K, 101 kPa, x1 = 0.4533 | 0.5058
298.15 K, 101 kPa, x1 = 0.5871 | 0.5227
298.15 K, 101 kPa, x1 = 0.7618 | 0.5374
298.15 K, 101.3 kPa, x1 = 0.0506 | 0.531
298.15 K, 101.3 kPa, x1 = 0.1042 | 0.518
298.15 K, 101.3 kPa, x1 = 0.2079 | 0.502
298.15 K, 101.3 kPa, x1 = 0.3011 | 0.498
298.15 K, 101.3 kPa, x1 = 0.3963 | 0.498
298.15 K, 101.3 kPa, x1 = 0.4931 | 0.504
298.15 K, 101.3 kPa, x1 = 0.589 | 0.509
298.15 K, 101.3 kPa, x1 = 0.6927 | 0.517
298.15 K, 101.3 kPa, x1 = 0.8137 | 0.53
298.15 K, 101.3 kPa, x1 = 0.8997 | 0.548
298.15 K, 101.3 kPa, x1 = 0.9575 | 0.566
298.15 K, 101.33 kPa, x1 = 0.0989 | 0.482
298.15 K, 101.33 kPa, x1 = 0.2009 | 0.462
298.15 K, 101.33 kPa, x1 = 0.3008 | 0.458
298.15 K, 101.33 kPa, x1 = 0.4008 | 0.457
298.15 K, 101.33 kPa, x1 = 0.5 | 0.462
298.15 K, 101.33 kPa, x1 = 0.6002 | 0.468
298.15 K, 101.33 kPa, x1 = 0.7016 | 0.474
298.15 K, 101.33 kPa, x1 = 0.8015 | 0.496
298.15 K, 101.33 kPa, x1 = 0.9028 | 0.511
303.15 K, 101 kPa, x1 = 0.0381 | 0.5011
303.15 K, 101 kPa, x1 = 0.0818 | 0.4896
303.15 K, 101 kPa, x1 = 0.1346 | 0.4814
303.15 K, 101 kPa, x1 = 0.1927 | 0.479
303.15 K, 101 kPa, x1 = 0.2626 | 0.4723
303.15 K, 101 kPa, x1 = 0.348 | 0.474
303.15 K, 101 kPa, x1 = 0.4533 | 0.473
303.15 K, 101 kPa, x1 = 0.5871 | 0.4884
303.15 K, 101 kPa, x1 = 0.7618 | 0.5087
303.15 K, 101.3 kPa, x1 = 0.026 | 0.503
303.15 K, 101.3 kPa, x1 = 0.0707 | 0.489
303.15 K, 101.3 kPa, x1 = 0.1832 | 0.469
303.15 K, 101.3 kPa, x1 = 0.2839 | 0.467
303.15 K, 101.3 kPa, x1 = 0.3823 | 0.468
303.15 K, 101.3 kPa, x1 = 0.4869 | 0.472
303.15 K, 101.3 kPa, x1 = 0.5847 | 0.475
303.15 K, 101.33 kPa, x1 = 0.0989 | 0.443
303.15 K, 101.33 kPa, x1 = 0.2009 | 0.432
303.15 K, 101.33 kPa, x1 = 0.3008 | 0.427
303.15 K, 101.33 kPa, x1 = 0.4008 | 0.429
303.15 K, 101.33 kPa, x1 = 0.6002 | 0.439
303.15 K, 101.33 kPa, x1 = 0.7016 | 0.447
303.15 K, 101.33 kPa, x1 = 0.8015 | 0.459
303.15 K, 101.33 kPa, x1 = 0.9028 | 0.48
308.15 K, 101.33 kPa, x1 = 0.0989 | 0.415
308.15 K, 101.33 kPa, x1 = 0.2009 | 0.406
308.15 K, 101.33 kPa, x1 = 0.3008 | 0.404
308.15 K, 101.33 kPa, x1 = 0.4008 | 0.403
308.15 K, 101.33 kPa, x1 = 0.5 | 0.406
308.15 K, 101.33 kPa, x1 = 0.6002 | 0.421
308.15 K, 101.33 kPa, x1 = 0.7016 | 0.419
308.15 K, 101.33 kPa, x1 = 0.8015 | 0.433
308.15 K, 101.33 kPa, x1 = 0.9028 | 0.456
313.15 K, 101 kPa, x1 = 0.0381 | 0.4382
313.15 K, 101 kPa, x1 = 0.0818 | 0.4297
313.15 K, 101 kPa, x1 = 0.1346 | 0.4193
313.15 K, 101 kPa, x1 = 0.1927 | 0.4192
313.15 K, 101 kPa, x1 = 0.2626 | 0.4166
313.15 K, 101 kPa, x1 = 0.348 | 0.4177
313.15 K, 101 kPa, x1 = 0.4533 | 0.4181
313.15 K, 101 kPa, x1 = 0.5871 | 0.4314
313.15 K, 101 kPa, x1 = 0.7618 | 0.4469
323.15 K, 101 kPa, x1 = 0.0381 | 0.3851
323.15 K, 101 kPa, x1 = 0.0818 | 0.3724
323.15 K, 101 kPa, x1 = 0.1346 | 0.3704
323.15 K, 101 kPa, x1 = 0.1927 | 0.3692
323.15 K, 101 kPa, x1 = 0.2626 | 0.3685
323.15 K, 101 kPa, x1 = 0.348 | 0.3693
323.15 K, 101 kPa, x1 = 0.4533 | 0.3745
323.15 K, 101 kPa, x1 = 0.5871 | 0.3867
323.15 K, 101 kPa, x1 = 0.7618 | 0.3997
